Patent US9695155B2, “Herbicidal substituted pyrimidinyloxy benzene compounds” (E. I. DU PONT DE NEMOURS AND COMPANY, priority 2013, dated 2017)

Key:
wild radish = test: Test D preemergence; format: in vivo, Raphanus raphanistrum
In short: (§1)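 In a controlled growth environment, treated and control plants were held 7 to 21 days, then compared visually. Damage was scored 0–100, where 100 means complete control. Sprays contained surfactant in a non-phytotoxic solvent; post-applied plants were at the 1- to 4-leaf stage.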

green foxtail = test: Test D preemergence; format: in vivo, Setaria viridis
In short: as §1

speedwell = test: Test D preemergence; format: in vivo, Veronica persica
In short: as §1

oilseed rape = test: Test D preemergence; format: in vivo, Brassica napus
In short: as §1

chamomile = test: Test D preemergence; format: in vivo, Matricaria inodora; details: for Plant response rating, Chamomile: scale 0-100
Description: (§2) Seeds of plant species selected from bluegrass (annual bluegrass, Poa annua), blackgrass (Alopecurus myosuroides), canarygrass (littleseed canarygrass, Phalaris minor), chickweed (common chickweed, Stellaria media), galium (catchweed bedstraw, Galium aparine), bromegrass, downy (downy bromegrass, Bromus tectorum), field poppy (Papaver rhoeas), field violet (Viola arvensis), green foxtail (Setaria viridis), deadnettle (henbit deadnettle, Lamium amplexicaule), Italian ryegrass (Lolium multiflorum), kochia (Kochia scoparia), lambsquarters (Chenopodium album), oilseed rape (Brassica napus), pigweed (Amaranthus retroflexus), chamomile (scentless chamomile, Matricaria inodora), Russian thistle (Salsola kali), speedwell (bird's-eye speedwell, Veronica persica), spring barley (Hordeum vulgare), spring wheat (Triticum aestivum), wild buckwheat (Polygonum convolvulus), wild mustard (Sinapis arvensis), wild oat (Avena fatua), wild radish (Raphanus raphanistrum), windgrass (Apera spica-venti), winter barley (Hordeum vulgare), and winter wheat (Triticum aestivum) were planted into a silt loam soil and treated preemergence with test chemicals formulated in a non-phytotoxic solvent mixture which included a surfactant.
(§3) At the same time, these species were planted in pots containing Redi-Earth® planting medium (Scotts Company, 14111 Scottslawn Road, Marysville, Ohio 43041) comprising spaghnum peat moss, vermiculite, wetting agent and starter nutrients and treated with postemergence applications of the test chemicals formulated in the same manner. Plants ranged in height from 2 to 18 cm (1- to 4-leaf stage). Treated plants and controls were maintained in a controlled growth environment for 7 to 21 days after which time all species were compared to controls and visually evaluated. Plant response ratings, summarized in Table D, are based on a scale of 0 to 100 where 0 is no effect and 100 is complete control. A dash (-) response means no test result.

canarygrass = test: Test D preemergence; format: in vivo, Phalaris minor
Description: as §2, §3

galium [1] = test: Test D postemergence; format: in vivo, Galium aparine
Description: as §2, §3

field violet = test: Test D postemergence; format: in vivo, Viola arvensis
In short: as §1

galium [2] = test: Test D preemergence; format: in vivo, Galium aparine
Description: as §2, §3

pigweed [3] = test: Test D postemergence; format: in vivo, Amaranthus retroflexus
In short: as §1

pigweed [4] = test: Test D preemergence; format: in vivo, Amaranthus retroflexus
In short: as §1

[5] = 16 g ai/ha, scale 0 (no effect) to 100 (complete control)
[6] = 31 g ai/ha, scale 0 (no effect) to 100 (complete control)
[7] = 31 g ai/ha, scale 0 to 100 (0 no effect, 100 complete control)
[8] = 62 g ai/ha, scale 0 to 100 (0 no effect, 100 complete control)
[9] = 125 g ai/ha, scale 0 to 100 (0 no effect, 100 complete control)
[10] = 250 g ai/ha, scale 0 to 100 (0 no effect, 100 complete control)

Clc1cnc(Oc2ccccc2-n2cc(Cl)cn2)nc1 [Compound 3]
95: Plant response rating, Radish, Wild (wild radish; 250 g ai/ha, scale 0-100)
0: Plant response rating, Radish, Wild (wild radish; [5]) | Plant response rating, Chamomile (chamomile; 31 g ai/ha) | Plant response rating, Chamomile (chamomile; 62 g ai/ha) | Plant response rating, Canarygrass (canarygrass; [5]) | Plant response rating, Canarygrass (canarygrass; 31 g ai/ha, scale 0-100) | Plant response rating, Canarygrass (canarygrass; 62 g ai/ha, scale 0-100) | Plant response rating, Canarygrass (canarygrass; 125 g ai/ha, scale 0-100) | Plant response rating, Galium (galium [2]; [5]) | Plant response rating, Galium (galium [2]; 31 g ai/ha, scale 0-100) | Plant response rating, Pigweed (pigweed [4]; [5]) | Plant response rating, Pigweed (pigweed [4]; [6])
100: Plant response rating, Speedwell (speedwell; [5]) | Plant response rating, Speedwell (speedwell; [6]) | Plant response rating, Speedwell (speedwell; 62 g ai/ha, scale 0-100) | Plant response rating, Speedwell (speedwell; 125 g ai/ha, scale 0-100) | Plant response rating, Speedwell (speedwell; 250 g ai/ha, scale 0-100) | Plant response rating, Oilseed Rape (oilseed rape; 125 g ai/ha, scale 0-100) | Plant response rating, Oilseed Rape (oilseed rape; 250 g ai/ha, scale 0-100) | Plant response rating, Galium (galium [2]; 250 g ai/ha, scale 0-100) | Plant response rating, Pigweed (pigweed [4]; 250 g ai/ha, scale 0-100)
10: Plant response rating, Foxtail, Green (green foxtail; [5]) | Plant response rating, Foxtail, Green (green foxtail; 62 g ai/ha, scale 0-100) | Plant response rating, Foxtail, Green (green foxtail; 125 g ai/ha, scale 0-100) | Plant response rating, Oilseed Rape (oilseed rape; [5]) | Plant response rating, Galium (galium [2]; 62 g ai/ha, scale 0-100)
5: Plant response rating, Field Violet (field violet; [7]) | Plant response rating, Field Violet (field violet; [8]) | Plant response rating, Field Violet (field violet; [9])
80: Plant response rating, Pigweed (pigweed [4]; 125 g ai/ha, scale 0-100)
30: Plant response rating, Foxtail, Green (green foxtail; 250 g ai/ha, scale 0-100) | Plant response rating, Galium (galium [1]; [7])
20: Plant response rating, Radish, Wild (wild radish; [6]) | Plant response rating, Chamomile (chamomile; 125 g ai/ha) | Plant response rating, Field Violet (field violet; 16 g ai/ha, scale 0-100) | Plant response rating, Field Violet (field violet; [10])
70: Plant response rating, Oilseed Rape (oilseed rape; 62 g ai/ha, scale 0-100) | Plant response rating, Galium (galium [2]; 125 g ai/ha, scale 0-100) | Plant response rating, Pigweed (pigweed [3]; 16 g ai/ha, scale 0-100) | Plant response rating, Pigweed (pigweed [3]; [7]) | Plant response rating, Pigweed (pigweed [3]; [8]) | Plant response rating, Pigweed (pigweed [3]; [9])
45: Plant response rating, Galium (galium [1]; [9])
90: Plant response rating, Radish, Wild (wild radish; 125 g ai/ha, scale 0-100) | Plant response rating, Pigweed (pigweed [3]; [10])
60: Plant response rating, Radish, Wild (wild radish; 62 g ai/ha, scale 0-100)
75: Plant response rating, Oilseed Rape (oilseed rape; 31 g ai/ha, scale 0-100) | Plant response rating, Galium (galium [1]; [10])
25: Plant response rating, Canarygrass (canarygrass; 250 g ai/ha, scale 0-100)
40: Plant response rating, Chamomile (chamomile; 250 g ai/ha) | Plant response rating, Galium (galium [1]; 16 g ai/ha, scale 0-100) | Plant response rating, Galium (galium [1]; [8]) | Plant response rating, Pigweed (pigweed [4]; 62 g ai/ha, scale 0-100)

Fc1cccc(Oc2ncc(Cl)cn2)c1-n1cc(Br)cn1 [Compound 178, 2-[2-(4-bromo-1H-pyrazol-1-yl)-3-fluorophenoxy]-5-chloropyrimidine]
85%: pest or weed control at 62 g/ha (pigweed [3]; Amaranthus retroflexus, post-emergence, 62 g ai/ha, scale 0 to 100 (0 no effect, 100 complete control), read-out: Plant response rating, Pigweed)
70%: pest or weed control at 31 g/ha (chamomile; Tripleurospermum inodorum, pre-emergence, 31 g ai/ha, scale 0-100, read-out: Plant response rating, Chamomile) | pest or weed control at 125 g/ha (field violet; Viola arvensis, post-emergence, 125 g ai/ha, scale 0 to 100 (0 no effect, 100 complete control), read-out: Plant response rating, Field Violet)
0%: pest or weed control at 16 g/ha (green foxtail; Setaria viridis, pre-emergence, 16 g ai/ha, scale 0 (no effect) to 100 (complete control), read-out: Plant response rating, Foxtail, Green) | pest or weed control at 31 g/ha (green foxtail; Setaria viridis, pre-emergence, 31 g ai/ha, scale 0-100, read-out: Plant response rating, Foxtail, Green) | pest or weed control at 16 g/ha (chamomile; Tripleurospermum inodorum, pre-emergence, 16 g ai/ha, scale 0 (no effect) to 100 (complete control), read-out: Plant response rating, Chamomile)
30%: pest or weed control at 31 g/ha (galium [2]; Galium, pre-emergence, 31 g ai/ha, scale 0-100, read-out: Plant response rating, Galium)
60%: pest or weed control at 125 g/ha (chamomile; Tripleurospermum inodorum, pre-emergence, 125 g ai/ha, scale 0-100, read-out: Plant response rating, Chamomile) | pest or weed control at 31 g/ha (canarygrass; Phalaris minor, pre-emergence, 31 g ai/ha, scale 0-100, read-out: Plant response rating, Canarygrass) | pest or weed control at 62 g/ha (canarygrass; Phalaris minor, pre-emergence, 62 g ai/ha, scale 0-100, read-out: Plant response rating, Canarygrass) | pest or weed control at 31 g/ha (field violet; Viola arvensis, post-emergence, 31 g ai/ha, scale 0 to 100 (0 no effect, 100 complete control), read-out: Plant response rating, Field Violet) | pest or weed control at 125 g/ha (galium [2]; Galium, pre-emergence, 125 g ai/ha, scale 0-100, read-out: Plant response rating, Galium)
50%: pest or weed control at 16 g/ha (field violet; Viola arvensis, post-emergence, 16 g ai/ha, scale 0-100, read-out: Plant response rating, Field Violet)
75%: plant injury at 31 g/ha (oilseed rape; Brassica napus, pre-emergence, 31 g ai/ha, scale 0-100, read-out: Plant response rating, Oilseed Rape) | pest or weed control at 16 g/ha (galium [1]; Galium, post-emergence, 16 g ai/ha, scale 0-100, read-out: Plant response rating, Galium) | pest or weed control at 31 g/ha (galium [1]; Galium, post-emergence, 31 g ai/ha, scale 0 to 100 (0 no effect, 100 complete control), read-out: Plant response rating, Galium) | pest or weed control at 62 g/ha (galium [1]; Galium, post-emergence, 62 g ai/ha, scale 0 to 100 (0 no effect, 100 complete control), read-out: Plant response rating, Galium) | pest or weed control at 16 g/ha (pigweed [3]; Amaranthus retroflexus, post-emergence, 16 g ai/ha, scale 0-100, read-out: Plant response rating, Pigweed) | pest or weed control at 16 g/ha (pigweed [4]; Amaranthus retroflexus, pre-emergence, 16 g ai/ha, scale 0 (no effect) to 100 (complete control), read-out: Plant response rating, Pigweed)
90%: pest or weed control at 31 g/ha (wild radish; Raphanus raphanistrum, pre-emergence, 31 g ai/ha, scale 0 (no effect) to 100 (complete control), read-out: Plant response rating, Radish, Wild) | pest or weed control at 125 g/ha (pigweed [3]; Amaranthus retroflexus, post-emergence, 125 g ai/ha, scale 0 to 100 (0 no effect, 100 complete control), read-out: Plant response rating, Pigweed)
45%: pest or weed control at 62 g/ha (galium [2]; Galium, pre-emergence, 62 g ai/ha, scale 0-100, read-out: Plant response rating, Galium)
5%: pest or weed control at 62 g/ha (green foxtail; Setaria viridis, pre-emergence, 62 g ai/ha, scale 0-100, read-out: Plant response rating, Foxtail, Green)
100%: pest or weed control at 62 g/ha (wild radish; Raphanus raphanistrum, pre-emergence, 62 g ai/ha, scale 0-100, read-out: Plant response rating, Radish, Wild) | pest or weed control at 125 g/ha (wild radish; Raphanus raphanistrum, pre-emergence, 125 g ai/ha, scale 0-100, read-out: Plant response rating, Radish, Wild) | pest or weed control at 16 g/ha (speedwell; Veronica persica, pre-emergence, 16 g ai/ha, scale 0 (no effect) to 100 (complete control), read-out: Plant response rating, Speedwell) | pest or weed control at 31 g/ha (speedwell; Veronica persica, pre-emergence, 31 g ai/ha, scale 0 (no effect) to 100 (complete control), read-out: Plant response rating, Speedwell) | pest or weed control at 62 g/ha (speedwell; Veronica persica, pre-emergence, 62 g ai/ha, scale 0-100, read-out: Plant response rating, Speedwell) | pest or weed control at 125 g/ha (speedwell; Veronica persica, pre-emergence, 125 g ai/ha, scale 0-100, read-out: Plant response rating, Speedwell) | plant injury at 125 g/ha (oilseed rape; Brassica napus, pre-emergence, 125 g ai/ha, scale 0-100, read-out: Plant response rating, Oilseed Rape) | pest or weed control at 31 g/ha (pigweed [4]; Amaranthus retroflexus, pre-emergence, 31 g ai/ha, scale 0 (no effect) to 100 (complete control), read-out: Plant response rating, Pigweed) | pest or weed control at 62 g/ha (pigweed [4]; Amaranthus retroflexus, pre-emergence, 62 g ai/ha, scale 0-100, read-out: Plant response rating, Pigweed) | pest or weed control at 125 g/ha (pigweed [4]; Amaranthus retroflexus, pre-emergence, 125 g ai/ha, scale 0-100, read-out: Plant response rating, Pigweed)
55%: pest or weed control at 16 g/ha (wild radish; Raphanus raphanistrum, pre-emergence, 16 g ai/ha, scale 0 (no effect) to 100 (complete control), read-out: Plant response rating, Radish, Wild) | pest or weed control at 62 g/ha (chamomile; Tripleurospermum inodorum, pre-emergence, 62 g ai/ha, scale 0-100, read-out: Plant response rating, Chamomile)
95%: pest or weed control at 125 g/ha (green foxtail; Setaria viridis, pre-emergence, 125 g ai/ha, scale 0-100, read-out: Plant response rating, Foxtail, Green) | pest or weed control at 125 g/ha (canarygrass; Phalaris minor, pre-emergence, 125 g ai/ha, scale 0-100, read-out: Plant response rating, Canarygrass)
10%: pest or weed control at 16 g/ha (canarygrass; Phalaris minor, pre-emergence, 16 g ai/ha, scale 0 (no effect) to 100 (complete control), read-out: Plant response rating, Canarygrass) | pest or weed control at 16 g/ha (galium [2]; Galium, pre-emergence, 16 g ai/ha, scale 0 (no effect) to 100 (complete control), read-out: Plant response rating, Galium)
80%: pest or weed control at 125 g/ha (galium [1]; Galium, post-emergence, 125 g ai/ha, scale 0 to 100 (0 no effect, 100 complete control), read-out: Plant response rating, Galium) | pest or weed control at 31 g/ha (pigweed [3]; Amaranthus retroflexus, post-emergence, 31 g ai/ha, scale 0 to 100 (0 no effect, 100 complete control), read-out: Plant response rating, Pigweed)
65%: plant injury at 16 g/ha (oilseed rape; Brassica napus, pre-emergence, 16 g ai/ha, scale 0 (no effect) to 100 (complete control), read-out: Plant response rating, Oilseed Rape) | pest or weed control at 62 g/ha (field violet; Viola arvensis, post-emergence, 62 g ai/ha, scale 0 to 100 (0 no effect, 100 complete control), read-out: Plant response rating, Field Violet)
